Consider two compounds from patent US20230129258A1, “HETEROTANDEM BICYCLIC PEPTIDE COMPLEXES” (BicycleTx Limited, priority 2019, published 2023).

For orientation: EC50 means the midpoint of the concentration-response curve.

Entries after “also recorded” stand apart in the source; their conditions may differ. Like-named read-outs stand apart in the source and are kept apart here. Starred links: 1 amine or outer side, 2 acyl side, 3 side chain; linkers in the order of their positions; H or OH if unused. Positions of bridges follow the written chain, without caps; N, C: chain ends. Non-standard residues stand in square brackets, D forms with d. Chains are numbered I, II in the order given. X1 = O=C(CCOCCOCCOCCN(CCOCCOCCOCCn1cc(CCC(=O)[*:2])nn1)CCOCCOCCOCCn1cc(CCC(=O)[*:3])nn1)[*:1]; TATA = O=C(CC[*:1])N1CN(C(=O)CC[*:2])CN(C(=O)CC[*:3])C1; d1Nal = N[C@H](Cc1cccc2ccccc12)C(=O)O; Hyp = O=C(O)[C@@H]1C[C@@H](O)CN1; hArg = N=C(N)NCCCC[C@H](N)C(=O)O; tBuAla = CC(C)(C)C[C@H](N)C(=O)O; Nle = CCCC[C@H](N)C(=O)O

Experiment [1] has as its system Nectin-1, Nectin-2, Nectin-3, Nectin-like-1, Nectin-like-2, Nectin-like-3, Nectin-like-4, Nectin-like-5. The experiment is described as follows: Nectin-4 paralogue screening by SPR. The note with it: biotinylated targets on streptavidin surface. It counts as binding. On the procedure: Nectin-4 Paralogue screening: Binding of BCY11863 was assessed using SPR against Nectin-1 (2880-N1, R&D Systems), Nectin-2 (2229-N2, R&D Systems), Nectin-3 (3064-N3, R&D Systems), Nectin-like-1 (3678-S4-050, R&D Systems), Nectin-like-2 (3519-S4-050, R&D Systems), Nectin-like-3 (4290-S4-050, R&D Systems), Nectin-like-4 (4164-S4, R&D Systems) and Nectin-like-5 (2530-CD-050, R&D Systems) by labelling them with biotin and immobilizing them on a streptavidin surface.

The subject of the next experiment is human PBMCs. As to the kind of experiment: Human PBMC-tumor cell co-culture (cytokine stimulation) assay with Nectin-4-expressing tumor cells. It counts as cell-based. Here is the method:
Tumor cell lines were cultured according to suppliers recommended protocol. Frozen PBMCs from healthy human donors were thawed and washed one time in room temperature PBS, and then resuspended in R10 medium. 100 μl of PBMCs (1,000,000 PBMCs/ml) and 100 μl of tumor cells (100,000 tumor cells/ml) (Effector:Target cell ratio (E:T) 10:1) were plated in each well of a 96 well flat bottom plate for the co-culture assay. 100 ng/ml of soluble anti-CD3 mAb (clone OKT3) was added to the culture on day 0 to stimulate human PBMCs. Test, control compounds, or vehicle controls were diluted in R10 media and 50 μL was added to respective wells to bring the final volume per well to 250 μL. Plates were covered with a breathable film and incubated in a humidified chamber at 37° C. with 5% CO2 for […]. Supernatants were collected 48 hours after stimulation, and human IL-2 and IFN-γ were detected by Luminex. Briefly, the standards and samples were added to black 96 well plate. Microparticle cocktail (provided in Luminex kit, R&D Systems) was added and shaken for 2 hours at room temperature. The plate was washed 3 times using magnetic holder. Biotin cocktail was then added to the plate and shaken for 1 hour at RT. The plate was washed 3 times using magnetic holder. Streptavidin cocktail was added to the plate and shaken for 30 minutes at RT. The plates were washed 3 times using magnetic holder, resuspended in 100 μL of wash buffer, shaken for 2 minutes at RT, and read using the Luminex 2000. Raw data were analyzed using built-in Luminex software to generate standard curves and interpolate protein concentrations, all other data analyses and graphing were performed using Excel and Prism software. […]

The target of another experiment is CD137 (Homo sapiens, UniProt Q07011). As to the kind of experiment: SPR (Biacore) binding to immobilized human CD137. The note with it: for off rate (koff) from immobilized CD137: avidity from two CD137 binding bicycles; for affinity to immobilized CD137 (human), in words: reported KD may be an overestimation. The arrangement: purchased R&D systems. Here is the method:
Biacore experiments were performed to determine ka (M^−1s^−1), kd (s^−1), KD (nM) values of heterotandem peptides binding to human CD137 protein. […] The protein was desalted to remove uncoupled biotin using spin columns into PBS.
For analysis of peptide binding, a Biacore T200 or a Biacore 3000 instrument was used with a XanTec CMD500D chip. Streptavidin was immobilized on the chip using standard amine-coupling chemistry at 25° C. with HBS-N (10 mM HEPES, 0.15 M NaCl, pH 7.4) as the running buffer. Briefly, the carboxymethyl dextran surface was activated with a 7 min injection of a 1:1 ratio of 0.4 M 1-ethyl-3-(3-dimethylaminopropyl) carbodiimide hydrochloride (EDC)/0.1 M N-hydroxy succinimide (NHS) at a flow rate of 10 μl/min. For capture of streptavidin, the protein was diluted to 0.2 mg/ml in 10 mM sodium acetate (pH 4.5) and captured by injecting 120 μl of onto the activated chip surface. Residual activated groups were blocked with a 7 min injection of 1 M ethanolamine (pH 8.5) and biotinylated CD137 captured to a level of 270-1500 RU. Buffer was changed to PBS/0.05% Tween 20 and a dilution series of the peptides was prepared in this buffer with a final DMSO concentration of 0.5%. The top peptide concentration was 500 nM with 6 further 2-fold or 3-fold dilutions. The SPR analysis was run at 25° C. at a flow rate of 90 μl/min with 60 seconds association and 900 seconds dissociation. After each cycle a regeneration step (10 μl of 10 mM glycine pH 2) was employed. Data were corrected for DMSO excluded volume effects as needed. All data were double-referenced for blank injections and reference surface using standard processing procedures and data processing and kinetic fitting were performed using Scrubber software, version 2.0c (BioLogic Software). Data were fitted using simple 1:1 binding model allowing for mass transport effects where appropriate.

Experiment [2] has as its system CT26 #7 tumor tissue T cells. The experiment is described as follows: Flow cytometry of T cells in CT26 #7 tumor tissue 1 h after last Q3D dose. Type of experiment: in vivo, BALB/c-hCD137 mice. The note with it: 5 mg/kg ip Q3D, 1 h after 6th dose. On the procedure:
1 hour after the last vehicle or BCY11863 dose the […] bearing mice were sacrificed and tumors were harvested, processed for single cell suspensions and stained for flow cytometry analysis for total T cells (CD45+CD3+), CD8+ T cells (CD45+CD3+CD8+), CD4+ T cells (CD45+CD3+CD4+) and regulatory T cells (Tregs; CD45+CD3+CD4+Foxp3+).
A general note: A flow cytometer gives signals particle by particle.

Chain of CD137 (Q07011 24-255): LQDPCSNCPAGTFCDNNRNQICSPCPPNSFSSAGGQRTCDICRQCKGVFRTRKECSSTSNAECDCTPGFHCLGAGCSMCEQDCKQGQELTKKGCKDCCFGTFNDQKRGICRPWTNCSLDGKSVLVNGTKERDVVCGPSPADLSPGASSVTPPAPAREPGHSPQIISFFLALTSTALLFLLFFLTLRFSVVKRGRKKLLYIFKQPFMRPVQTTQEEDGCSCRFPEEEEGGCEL

`CCCC[C@@H]1NC(=O)[C@H](Cc2ccc(O)cc2)NC(=O)[C@@H]2CCCN2C(=O)[C@H](CC(=O)O)NC(=O)[C@H](C)NC(=O)[C@H](Cc2ccccc2)NC(=O)[C@@H]2CSCCC(=O)N3CN(CN(C3)C(=O)CCSC[C@@H](C(=O)N[C@@H](C)C(N)=O)NC1=O)C(=O)CCSC[C@H](NC(C)=O)C(=O)N[C@@H](CC(C)(C)C)C(=O)N1CCC[C@H]1C(=O)N[C@@H](CCC(=O)O)C(=O)N[C@H](CCCCNC(=O)CCc1cn(CCOCCOCCOCCN(CCOCCOCCOCCC(=O)N[C@H]3CSCCC(=O)N4CN5CN(C4)C(=O)CCSC[C@H](NC(=O)[C@@H](CC(=O)O)NC(=O)[C@H](Cc4cccc6ccccc46)NC(=O)[C@@H]4CCCN4C3=O)C(=O)N[C@@H](CCSC)C(=O)N[C@@H](CCCCNC(=N)N)C(=O)N[C@@H](CC(=O)O)C(=O)N[C@@H](Cc3c[nH]c4ccccc34)C(=O)N[C@@H](CO)C(=O)N[C@@H]([C@@H](C)O)C(=O)N3CCC[C@H]3C(=O)N3C[C@H](O)C[C@H]3C(=O)N[C@@H](Cc3c[nH]c4ccccc34)C(=O)N[C@H](C(N)=O)CSCCC5=O)CCOCCOCCOCCn3cc(CCC(=O)NCCCC[C@H]4NC(=O)[C@H](CCC(=O)O)NC(=O)[C@@H]5CCCN5C(=O)[C@H](CC(C)(C)C)NC(=O)[C@@H](NC(C)=O)CSCCC(=O)N5CN6CN(C5)C(=O)CCSC[C@H](NC(=O)[C@H](Cc5ccc(O)cc5)NC(=O)[C@@H]5CCCN5C4=O)C(=O)N[C@@H](Cc4ccccc4)C(=O)N[C@@H](C)C(=O)N[C@@H](CC(=O)O)C(=O)N4CCC[C@H]4C(=O)N[C@@H](Cc4ccc(O)cc4)C(=O)N[C@@H](CCCC)C(=O)N[C@H](C(=O)N[C@@H](C)C(N)=O)CSCCC6=O)nn3)nn1)C(=O)N1CCC[C@H]1C(=O)N[C@@H](Cc1ccc(O)cc1)C(=O)N2` [BCY11863]: in experiment [1], the “binding to Nectin-4 paralogues: concentration up to which no binding was shown” value is reported as over 5000 nM. Moreover, the EC50 with human PBMCs (4T1-D02 (mouse), 4 donors, read-out: IFNy (nM), EC50 of cytokine secretion) was 0.04 ± 0.04 nM; in the experiment on human PBMCs (4T1-D02 (mouse), 4 donors, read-out: IL-2 (nM), EC50 of cytokine secretion), 0.16 ± 0.22 nM; with human PBMCs (4T1-Parental (Nectin4-), read-out: IFNy (nM), EC50 of cytokine secretion) it was over 100 nM; with human PBMCs (4T1-Parental (Nectin4-), read-out: IL-2 (nM), EC50 of cytokine secretion), over 100 nM; in the experiment on human PBMCs (H322 (human), 3 donors, read-out: IFNy (nM), EC50 of cytokine secretion), 0.85 ± 0.66 nM; in the experiment with human PBMCs (H322 (human), 3 donors, read-out: IL-2 (nM), EC50 of cytokine secretion), 0.84 ± 0.15 nM. Also, the EC50 was 0.23 ± 0.15 nM in the experiment with human PBMCs (HT1376 (human), 5 donors, read-out: IFNy (nM), EC50 of cytokine secretion); 0.39 ± 0.29 nM with human PBMCs (HT1376 (human), 5 donors, read-out: IL-2 (nM), EC50 of cytokine secretion); 0.17 ± 0.11 nM in the experiment on human PBMCs (MC38 #13 (mouse), 4 donors, read-out: IFNy (nM), EC50 of cytokine secretion); 0.25 ± 0.08 nM in the experiment with human PBMCs (MC38 #13 (mouse), 4 donors, read-out: IL-2 (nM), EC50 of cytokine secretion); 0.08 ± 0.06 nM in the experiment on human PBMCs (T-47D (human), 3 donors, read-out: IFNy (nM), EC50 of cytokine secretion); 0.2 ± 0.07 nM with human PBMCs (T-47D (human), 3 donors, read-out: IL-2 (nM), EC50 of cytokine secretion). In addition, the “IL-2 and IFN-γ cytokine secretion” value in the experiment on human PBMCs (PBMC-4T1 (Nectin-4 engineered) co-culture, FIGS. 2A, 2B) was “induces robust IL-2 and IFN-γ cytokine secretion”. Besides, on CD137, the “off rate (koff) from immobilized CD137” value is on record as “extremely slow; also recorded: very slow”. For the same compound, on CD137, the “affinity to immobilized CD137 (human), in words” value is “high affinity”. For the same compound, the “CD8+ T cells in tumor” value in experiment [2] (p<0.0001) is given as “significant increase”. Besides, the “total T cells (CD45+CD3+) in tumor” value in experiment [2] (p<0.0001) is listed as “significant increase”. Further, in experiment [2] (p<0.05), the “CD8+ T cell/Treg ratio in tumor” value is recorded as “significant increase”.

For “I: A[hArg]DC[Hyp]LVNPLCLEP[d1Nal]WTC-NH2 / II: Ac-C[tBuAla]PE[dK]PYCFADPY[Nle]CA-NH2 / III: Ac-C[tBuAla]PE[dK]PYCFADPY[Nle]CA-NH2 (linker I:4-I:11-I:18, II:1-II:8-II:15, III:1-III:8-III:15 via TATA; linker I:N-II:5-III:5 via X1) [BCY13272]”, at CD137, the “off rate (koff) from immobilized CD137” value is given as “very slow” and the “affinity to immobilized CD137 (human), in words” value is listed as “high affinity”.
